A short description of data set [1]: Determination of brain/plasma ratios for K252a and NAD002 for comparison with NAD0241 (Example 56F). It is filed as in vivo, Wistar Han Rats. The settings on record: rats, 1 hour post-administration. On the procedure:
Application of Compound: 5 mg/kg of NAD 241 and NAD0180 each in a vehicle of 1.5 mL/kg PEG 400 Macrogol Ph. Eur. were applied i.v. through the femoral vein to two groups (n=3) of Wistar Han Rats weighing between 240-270 g. The application was performed under anaesthesia, initiated with 3.5% Isofluorane/O2, then maintained at 1% during compound application and suture of the vein. 200 μL of local anaesthetic lidocaine were locally administered. 1 hour after application of the compound 200 μl of blood were obtained by tail vein incision. Immediately following the blood sampling rats were terminated by decapitation after brief CO2 anaesthesia Brains were resected and weighed. Plasma was obtained by centrifugation of the tail vein blood at 13000 g for 20 minutes at 4° C. Prior art compounds […] and NAD002 and were assessed using identical conditions of application as used in example 56E to provide a direct comparison with NAD0241 for the ability to penetrate the blood-brain barrier. Volumes of injection for all compounds (including NAD0241) was fixed at 2.3 mL/kg, in average about 500-600 μL per animal. The other parameters were left unchanged. Sampling of body fluids and brain tissue was performed as described in example 56E. Extraction of compounds from brain and plasma was performed as described in example 56E but no concentrated ammonia solution was added prior to extraction of […] and NAD002. HPLC analysis of […] was performed on a 5 μm Merck RP 18 Select B 12.5×4.6 mm column at a flow rate of 0.75 mL/min with isocratic elution by acetonitrile/water 60/40 (v/v). Fluorescent excitation/emission was at 284 nm/476 nm. NAD002 was analyzed on a C 18 shield symmetry 25×4.6 mm (Waters and Owen) at 40° C. using excitation/emission wavelengths of 315/565 nm. Quantitations were performed as under example 56E.

Data set [2] deals with T1, PKA (catalytic subunit, bovine heart) (Bos taurus, UniProt P00517).
T1 construct: PKA (catalytic subunit, bovine heart, Calbiochem 539486); purchased Calbiochem 539486; host or cells: bovine heart (tissue-derived)
In words: Protein Kinase A inhibition assay (PKA). It is filed as biochemical. The settings on record: 10 μM compound. On the procedure:
(§1) The ERK2 kinase activity assay utilizes a radioactivity-based format in a 96-well PCR plate with radioactive readout. The ERK2 activity was assayed in a 25 μL assay mixture containing 25 mM HEPES (pH 7.0), 250 μM ATP, 1 mM MgCl2, 1 mM DTT, 2% DMSO, 150 ng/mL Myelin Basic Protein (MBP, Sigma M-1891), and 13.6 ng/mL His tagged ERK2 (specific activity=38.1 nmol/min*mg). Compounds were screened for inhibition of the ERK2 kinase activity at a concentration of 10 μM. The kinase reaction was allowed to proceed at 37° C. for 30 minutes, then reaction was stopped by the addition of 5 μl of 0.5M EDTA (pH 8). 15 μL of each solution were then spotted onto the corresponding square of a filtermat (8×12 glassfibre mat 90×120 mm, PE-Wallac 1450-421). The filtermat was allowed to dry and washed once with 10% TCA, 2% PPA, 500 mM NaCl each for 30 minutes at rt. Two further washings in 10% TCA and 2% PPA for 30 minutes were performed, then a final 30 minute wash in 99% EtOH at rt was done and the filtermat was air dried. The dry filtermat was then placed in a sample bag with a Meltilex sheet (Melt-on scintillator sheets 73×109 mm, PE-Wallac 1450-441 for filtermat A) over the filtermat. The bag was trimmed to fit into the microplate heatsealer (PE-Wallac 1495-021). The heatsealer is used to melt the Meltilex on the filtermat. The bag containing the filtermat and the melted Meltilex was then placed into a filter cassette and counted using the Microbeta Jet Scintillation and Luminescence Counter PE-Wallac 1450.
The PKA kinase activity assay utilizes a radioactivity-based format in a 96-well PCR plate with radioactive readout. The PKA activity was assayed in a 25 μL assay mixture containing 25 mM HEPES (pH 7.0), 250 μM ATP, 10 mM MgCl2, 1 mM DTT, 1 mM EDTA (pH 8). 2% DMSO. 250 ng/mL Histone H2B (Roche 223 514), and 2 ng/mL PKA (catalytic subunit, bovine heart, Calbiochem 539486, specific activity=1170 pmol/min*μg). Compounds were screened for inhibition of the PKA kinase activity at a concentration of 10 μM. The kinase reaction was allowed to proceed at 37° C. for 30 minutes, then the reaction was stopped by addition of 5 μL of 0.5M EDTA (pH 8). The remainder of the protocol is identical to the one reported for ERK2.

Another data set deals with His tagged ERK2 (Homo sapiens, UniProt P28482). The experiment in a line: Extracellular signal Regulated Kinase 2 inhibition assay (ERK2), radioactive filtermat format. It counts as biochemical. The note with it: 10 μM compound. On the procedure:
as §1

The test system of the next data set is PKC (rat brain). The experiment in a line: Protein Kinase C inhibition assay (PKC). It is filed as biochemical. The note with it: 10 μM compound. On the procedure: as §1
The PKC kinase activity assay utilizes a radioactivity-based format in a 96-well PCR plate with radioactive readout. The PKC activity was assayed in a 25 μL assay mixture containing 25 mM HEPES (pH 7.0), 250 μM ATP, 10 mM MgCl2, 1 mM DTT, 1 mM EDTA (pH 8), 2 mM CaCl2, 2% DMSO, 250 ng/mL Histone H1 (Roche 1 004 875), and 165 ng/mL PKC (rat brain, Calbiochem 539494, specific activity=1600 nmol/min*mg). Compounds were screened for inhibition of the PKC kinase activity at a concentration of 10 μM. The kinase reaction was allowed to proceed at 37° C. for 30 minutes, then the reaction was stopped by addition of 5 μL of 0.5M EDTA (pH 8). The remainder of the protocol is identical to the one reported for ERK2.

The text below walks through data of patent US20070149481A1, “N,n-bridged, nitrogen-substituted carbacyclic indolocarbazoles as protein kinase inhibitors” (priority 2002, published 2007).

Usually inhibition stands for the relative decrease from the control value, in per cent.

The structures appear in SMILES notation.

Chain of His tagged ERK2 (P28482 whole entry): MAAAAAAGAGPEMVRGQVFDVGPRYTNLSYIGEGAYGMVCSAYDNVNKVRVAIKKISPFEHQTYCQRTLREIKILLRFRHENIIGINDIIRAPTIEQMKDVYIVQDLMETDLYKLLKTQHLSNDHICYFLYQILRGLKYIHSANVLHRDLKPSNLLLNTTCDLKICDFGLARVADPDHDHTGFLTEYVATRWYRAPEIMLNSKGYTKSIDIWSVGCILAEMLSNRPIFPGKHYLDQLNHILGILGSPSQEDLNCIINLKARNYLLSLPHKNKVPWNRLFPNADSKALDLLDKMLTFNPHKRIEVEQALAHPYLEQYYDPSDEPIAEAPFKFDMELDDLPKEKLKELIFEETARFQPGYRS

Consider `NC(=O)[C@]1(N)CC2CC1n1c3ccccc3c3c4c(c5c6ccccc6n2c5c31)C(=O)NC4=O` (mixture of isomers) [Compound 5], for which the Kp at 1 h in data set [1] (Wistar Han, rat, brain and plasma, iv, 5 mg/kg, 5 mg/kg i.v., 2.3 mL/kg PEG 400, read-out: brain/plasma ratio) was around 1. Further, in data set [1], the “brain concentration compared with NAD002” value is listed as “Significantly higher”; the “improvement of brain/plasma ratio over K252a” value is “about two-fold”; the “improvement of brain/plasma ratio over NAD002” value is reported as “several-fold”; the “plasma levels compared with NAD002 and K252a” value is listed as “Lower”. For the same compound, 10 µM produced 96.8% inhibition in data set [2]. In addition, at His tagged ERK2, the inhibition at 10 µM is 92.3%. Moreover, the “% Inhibition PKC” value with PKC (rat brain) is 91.62%.
